Blank lines part the entries; values can stand above or below the compound they belong to.
Test system: K12877-001-R-J1-PDC complex spheroid viability
Assay: Anticancer human tumor K12877-001-R-J1-PDC patient-derived lung adenocarcinoma cell line growth inhibition [RAS]
Conditions: for IC50: curve of first compound; for viability, T/C: stronger effect = lower value
Procedure, shortened: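 Agents were tested in combination matrices in half-log decrements from a top concentration at or near clinical Cmax (10 microM if undetermined). Targets were multi-cell spheroids of tumour lines plus HUVEC and MSC stromal cells.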

[1] = second compound 0.000949 µM, first compound 0.000949 µM
[2] = second compound 0.000949 µM, first compound 0.003 µM
[3] = second compound 0.000949 µM, first compound 0.00949 µM
[4] = second compound 0.000949 µM, first compound 0.03 µM
[5] = second compound 0.000949 µM, first compound 0.0949 µM
[6] = second compound 0.000949 µM, first compound 0.3 µM
[7] = second compound 0.003 µM, first compound 0.000949 µM
[8] = second compound 0.003 µM, first compound 0.003 µM
[9] = second compound 0.003 µM, first compound 0.00949 µM
[10] = second compound 0.003 µM, first compound 0.03 µM
[11] = second compound 0.003 µM, first compound 0.0949 µM
[12] = second compound 0.003 µM, first compound 0.3 µM
[13] = second compound 0.00949 µM, first compound 0.000949 µM
[14] = second compound 0.00949 µM, first compound 0.003 µM
[15] = second compound 0.00949 µM, first compound 0.00949 µM
[16] = second compound 0.00949 µM, first compound 0.03 µM
[17] = second compound 0.00949 µM, first compound 0.0949 µM
[18] = second compound 0.00949 µM, first compound 0.3 µM
[19] = second compound 0.03 µM, first compound 0.000949 µM
[20] = second compound 0.03 µM, first compound 0.003 µM
[21] = second compound 0.03 µM, first compound 0.00949 µM
[22] = second compound 0.03 µM, first compound 0.03 µM
[23] = second compound 0.03 µM, first compound 0.0949 µM
[24] = second compound 0.03 µM, first compound 0.3 µM
[25] = second compound 0.0949 µM, first compound 0.000949 µM
[26] = second compound 0.0949 µM, first compound 0.003 µM
[27] = second compound 0.0949 µM, first compound 0.00949 µM
[28] = second compound 0.0949 µM, first compound 0.03 µM
[29] = second compound 0.0949 µM, first compound 0.0949 µM
[30] = second compound 0.0949 µM, first compound 0.3 µM
[31] = second compound 0.3 µM, first compound 0.000949 µM
[32] = second compound 0.3 µM, first compound 0.003 µM
[33] = second compound 0.3 µM, first compound 0.00949 µM
[34] = second compound 0.3 µM, first compound 0.03 µM
[35] = second compound 0.3 µM, first compound 0.0949 µM
[36] = second compound 0.3 µM, first compound 0.3 µM
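Also: spheroids exposed to agents for one week before readout.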
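For viability, T/C in this document: tumour cells co-cultured with HUVEC and mesenchymal stem cells in spheroids.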

- IC50 (second compound 0.000949 µM): > 1000 nM
- IC50 (second compound 0.003 µM): > 1000 nM
- IC50 (second compound 0.00949 µM): > 1000 nM
- IC50 (second compound 0.03 µM): > 1000 nM
- IC50 (second compound 0.0949 µM): > 1000 nM
- IC50 (second compound 0.3 µM): > 1000 nM
Structure (SMILES): C=CC(=O)N1CCN(c2nc(OCC3CCCN3C)nc3c(F)c(-c4nc(N)cc(C)c4C(F)(F)F)c(Cl)cc23)C(C)C1 (stereo unspecified) + CCn1c(-c2cccnc2C(C)OC)c2c3cc(ccc31)N1CCOC(CC(NC(=O)C(C(C)C)N(C)C(=O)C3(F)CCN(C(=O)C#CC(C)(C)N(C)C)CC3)C(=O)N3CCCC(N3)C(=O)OCC(C)(C)C2)C1
- viability, T/C (second compound 0.000949 µM, first compound 0.00316 µM): 82%
- viability, T/C (second compound 0.000949 µM, first compound 0.01 µM): 83%
- viability, T/C (second compound 0.000949 µM, first compound 0.0316 µM): 83.5%
- viability, T/C (second compound 0.000949 µM, first compound 0.1 µM): 74.2%
- viability, T/C (second compound 0.000949 µM, first compound 0.316 µM): 76%
- viability, T/C (second compound 0.000949 µM, first compound 1 µM): 77.8%
- viability, T/C (second compound 0.003 µM, first compound 0.00316 µM): 78%
- viability, T/C (second compound 0.003 µM, first compound 0.01 µM): 61.3%
- viability, T/C (second compound 0.003 µM, first compound 0.0316 µM): 73.6%
- viability, T/C (second compound 0.003 µM, first compound 0.1 µM): 81.1%
- viability, T/C (second compound 0.003 µM, first compound 0.316 µM): 86%
- viability, T/C (second compound 0.003 µM, first compound 1 µM): 71.1%
- viability, T/C (second compound 0.00949 µM, first compound 0.00316 µM): 75.4%
- viability, T/C (second compound 0.00949 µM, first compound 0.01 µM): 83.9%
- viability, T/C (second compound 0.00949 µM, first compound 0.0316 µM): 77.5%
- viability, T/C (second compound 0.00949 µM, first compound 0.1 µM): 85.3%
- viability, T/C (second compound 0.00949 µM, first compound 0.316 µM): 85.5%
- viability, T/C (second compound 0.00949 µM, first compound 1 µM): 78.6%
- viability, T/C (second compound 0.03 µM, first compound 0.00316 µM): 77.4%
- viability, T/C (second compound 0.03 µM, first compound 0.01 µM): 76.1%
- viability, T/C (second compound 0.03 µM, first compound 0.0316 µM): 77.6%
- viability, T/C (second compound 0.03 µM, first compound 0.1 µM): 75.9%
- viability, T/C (second compound 0.03 µM, first compound 0.316 µM): 81.7%
- viability, T/C (second compound 0.03 µM, first compound 1 µM): 73.3%
- viability, T/C (second compound 0.0949 µM, first compound 0.00316 µM): 83.4%
- viability, T/C (second compound 0.0949 µM, first compound 0.01 µM): 70.5%
- viability, T/C (second compound 0.0949 µM, first compound 0.0316 µM): 79.7%
- viability, T/C (second compound 0.0949 µM, first compound 0.1 µM): 76.1%
- viability, T/C (second compound 0.0949 µM, first compound 0.316 µM): 73.8%
- viability, T/C (second compound 0.0949 µM, first compound 1 µM): 72.8%
- viability, T/C (second compound 0.3 µM, first compound 0.00316 µM): 58.1%
- viability, T/C (second compound 0.3 µM, first compound 0.01 µM): 67%
- viability, T/C (second compound 0.3 µM, first compound 0.0316 µM): 66.3%
- viability, T/C (second compound 0.3 µM, first compound 0.1 µM): 68.5%
- viability, T/C (second compound 0.3 µM, first compound 0.316 µM): 70%
- viability, T/C (second compound 0.3 µM, first compound 1 µM): 66.8%

- IC50 (second compound 0.000949 µM): 16.8 nM
- IC50 (second compound 0.003 µM): 15.1 nM
- IC50 (second compound 0.00949 µM): 13.2 nM
- IC50 (second compound 0.03 µM): 15.9 nM
- IC50 (second compound 0.0949 µM): 13.8 nM
- IC50 (second compound 0.3 µM): 11 nM
Structure (SMILES): CC1(C)CCC(Nc2ncc(C(F)(F)F)c(-c3c[nH]c4c(P(C)(C)=O)c(C#N)ccc34)n2)CN1 (stereo unspecified) + CCn1c(-c2cccnc2C(C)OC)c2c3cc(ccc31)N1CCOC(CC(NC(=O)C(C(C)C)N(C)C(=O)C3(F)CCN(C(=O)C#CC(C)(C)N(C)C)CC3)C(=O)N3CCCC(N3)C(=O)OCC(C)(C)C2)C1
- viability, T/C [1]: 88.3%
- viability, T/C [2]: 79%
- viability, T/C [3]: 63.7%
- viability, T/C [4]: 36.4%
- viability, T/C [5]: 24.2%
- viability, T/C [6]: 18.5%
- viability, T/C [7]: 80.2%
- viability, T/C [8]: 81%
- viability, T/C [9]: 57.8%
- viability, T/C [10]: 35.9%
- viability, T/C [11]: 24.9%
- viability, T/C [12]: 18%
- viability, T/C [13]: 74.1%
- viability, T/C [14]: 71.8%
- viability, T/C [15]: 55.3%
- viability, T/C [16]: 35.1%
- viability, T/C [17]: 22.7%
- viability, T/C [18]: 17.1%
- viability, T/C [19]: 74.7%
- viability, T/C [20]: 73.7%
- viability, T/C [21]: 63.8%
- viability, T/C [22]: 33%
- viability, T/C [23]: 20.9%
- viability, T/C [24]: 19%
- viability, T/C [25]: 72.8%
- viability, T/C [26]: 66.1%
- viability, T/C [27]: 58.4%
- viability, T/C [28]: 34.7%
- viability, T/C [29]: 21.8%
- viability, T/C [30]: 18%
- viability, T/C [31]: 69.1%
- viability, T/C [32]: 63.7%
- viability, T/C [33]: 53.9%
- viability, T/C [34]: 29.6%
- viability, T/C [35]: 19%
- viability, T/C [36]: 14.8%

- IC50 (second compound 0.000949 µM): 4.24 nM
- IC50 (second compound 0.003 µM): 3.18 nM
- IC50 (second compound 0.00949 µM): 2.99 nM
- IC50 (second compound 0.03 µM): 2.98 nM
- IC50 (second compound 0.0949 µM): 2.7 nM
- IC50 (second compound 0.3 µM): 1.63 nM
Structure (SMILES): CCc1c2c(nc3ccc(O)cc13)-c1cc3c(c(=O)n1C2)COC(=O)[C@]3(O)CC + CCn1c(-c2cccnc2C(C)OC)c2c3cc(ccc31)N1CCOC(CC(NC(=O)C(C(C)C)N(C)C(=O)C3(F)CCN(C(=O)C#CC(C)(C)N(C)C)CC3)C(=O)N3CCCC(N3)C(=O)OCC(C)(C)C2)C1
- viability, T/C [1]: 89.5%
- viability, T/C [2]: 68.3%
- viability, T/C [3]: 7.36%
- viability, T/C [4]: 4.07%
- viability, T/C [5]: 2.52%
- viability, T/C [6]: 1.41%
- viability, T/C [7]: 62.1%
- viability, T/C [8]: 52.2%
- viability, T/C [9]: 8.47%
- viability, T/C [10]: 3.87%
- viability, T/C [11]: 2.21%
- viability, T/C [12]: 1.33%
- viability, T/C [13]: 78.3%
- viability, T/C [14]: 49.9%
- viability, T/C [15]: 7.64%
- viability, T/C [16]: 4.13%
- viability, T/C [17]: 2.66%
- viability, T/C [18]: 1.35%
- viability, T/C [19]: 78.1%
- viability, T/C [20]: 49.9%
- viability, T/C [21]: 7.8%
- viability, T/C [22]: 3.09%
- viability, T/C [23]: 2.15%
- viability, T/C [24]: 1.08%
- viability, T/C [25]: 75.5%
- viability, T/C [26]: 47.4%
- viability, T/C [27]: 6.39%
- viability, T/C [28]: 4.02%
- viability, T/C [29]: 2.14%
- viability, T/C [30]: 1.27%
- viability, T/C [31]: 62.8%
- viability, T/C [32]: 35.8%
- viability, T/C [33]: 5.11%
- viability, T/C [34]: 3.66%
- viability, T/C [35]: 1.47%
- viability, T/C [36]: 1.32%
